Molecular target: TRPV1 (Homo sapiens, UniProt Q8NER1)
Assay: Fluo-4 calcium imaging in HEK293 cells stably expressing human TRPV1; no effect in control T-REx HEK293 cells; blocked by AMG9810
Assay type: cell-based

Sequence of TRPV1 (Q8NER1 whole entry): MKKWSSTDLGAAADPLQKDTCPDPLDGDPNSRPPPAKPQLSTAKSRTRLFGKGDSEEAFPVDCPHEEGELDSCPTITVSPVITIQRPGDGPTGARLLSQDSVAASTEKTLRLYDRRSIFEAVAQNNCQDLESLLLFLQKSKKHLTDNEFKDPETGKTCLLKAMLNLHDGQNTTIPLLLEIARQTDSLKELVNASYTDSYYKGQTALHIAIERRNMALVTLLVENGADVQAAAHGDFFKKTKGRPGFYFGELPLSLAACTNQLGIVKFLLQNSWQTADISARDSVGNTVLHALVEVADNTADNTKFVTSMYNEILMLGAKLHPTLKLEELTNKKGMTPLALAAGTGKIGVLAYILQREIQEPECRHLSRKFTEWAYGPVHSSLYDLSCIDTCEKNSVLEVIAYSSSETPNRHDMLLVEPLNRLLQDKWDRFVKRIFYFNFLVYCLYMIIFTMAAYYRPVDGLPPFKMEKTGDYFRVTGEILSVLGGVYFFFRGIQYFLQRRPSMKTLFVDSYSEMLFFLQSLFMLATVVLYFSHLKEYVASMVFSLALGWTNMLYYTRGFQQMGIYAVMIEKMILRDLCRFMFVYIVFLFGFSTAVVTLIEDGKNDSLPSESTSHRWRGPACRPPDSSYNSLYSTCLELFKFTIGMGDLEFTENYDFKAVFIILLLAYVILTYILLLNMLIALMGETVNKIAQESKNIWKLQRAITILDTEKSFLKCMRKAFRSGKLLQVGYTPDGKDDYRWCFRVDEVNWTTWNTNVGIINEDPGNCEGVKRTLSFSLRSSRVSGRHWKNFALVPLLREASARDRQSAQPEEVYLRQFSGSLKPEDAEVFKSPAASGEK

O=C(/C=C/C=C/c1ccc2c(c1)OCO2)N1CCCCC1 [Piperine]
EC50: 1080 nM

Source: PMC7201532, “The role of Piper chaba Hunt. and its pure compound, piperine, on TRPV1 activation and adjuvant effect” (BMC Complementary Medicine and Therapies, 2020)
